The source of these data is US12384769B2, “Heteroaryl-substituted aminoalkyl azole compounds as pesticides” (Elanco Animal Health GmbH, priority 2019, dated 2025).

What all share (type): in vivo
The subject of one assay is Diabrotica balteata. Put plainly: Diabrotica balteata spray test. The conditions noted are these: 168 h, wheat seeds, after 7 days, read-out: activity (efficacy, seedlings grown). The gist of the method: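 Efficacy was read 7 days after infesting each unit with 10–20 banded cucumber beetle larvae, as % of seedlings growing like untreated, uninfested controls. Before infestation, wheat seeds germinated 1 day on agar (5 per well) were sprayed with the active ingredient. The active was formulated in acetone/DMF and diluted in water containing emulsifier.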

Assay [1] has as its system Ctenocephalides felis. Put plainly: Ctenocephalides felis oral test (CTECFE). Conditions: 48 h, 100 ppm in cattle blood, after 2 days. The gist of the method:
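About 20 adult unfed fleas fed through parafilm on cattle blood held at 37° C and dosed with compound from a DMSO concentrate; flea chamber at room temperature. Percent mortality scored after 2 days.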

Assay [2] has as its system Myzus persicae. Put plainly: Myzus persicae spray test. Conditions: foliar, 120 h, Chinese cabbage leaf disks, after 5 days. As for the experimental part: Myzus persicae—Spray Test
Solvent: 78.0 parts by weight acetone • 1.5 parts by weight dimethylformamide
Emulsifier: alkylarylpolyglycol ether
To produce a suitable preparation of active compound, 1 part by weight of active compound is mixed with the stated amount of solvents and is diluted with water, containing an emulsifier concentration of 1000 ppm, to the desired concentration. Further test concentrations are prepared by dilution with emulsifier containing water.
Chinese cabbage (Brassica pekinensis) leaf disks infected with all instars of the green peach aphid (Myzus persicae), are sprayed with a preparation of the active ingredient of the desired concentration.
(§1) After 5 days mortality in % is determined. 100% means all aphids have been killed and 0% means none of the aphids have been killed.

In assay [3] the test system is Rhipicephalus microplus (strain Parkhurst, resistant against synthetic pyrethroids). Put plainly: Rhipicephalus microplus in-vitro contact test, larval cattle tick (BOOPMI Contact). Conditions: 5 μg/cm^2 (=500 g/ha), after 48 hours, read-out: activity (efficacy, larvae dead or moribund). In outline:
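Efficacy, expressed as percentage of larvae dead or moribund, is judged by negative geotactic behaviour 48 h after larvae (20-50 per tube) enter tubes whose inner walls carry a dried acetone film of compound, 5 μg/cm² at 900 ppm. Incubation: horizontal, 27 °C, 85% relative humidity.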

A further assay has as its system Meloidogyne incognita. Description: Meloidogyne incognita test. The conditions noted are these: 20 ppm, after 14 days. Here is the method: Meloidogyne incognita—Test
Solvent: 125.0 parts by weight of acetone
To produce a suitable preparation of active compound, 1 part by weight of active compound is mixed with the stated amount of solvent, and the concentrate is diluted with water to the desired concentration.
Vessels are filled with sand, a solution of the active ingredient, a suspension containing eggs and larvae of the southern root-knot nematode (Meloidogyne incognita) and salad seeds. The salad seeds germinate, and the seedlings grow. Galls develop in the roots.
After 14 days the nematicidal activity is determined based on the percentage of gall formation. 100% means no galls were found and 0% means the number of galls found on the roots of the treated plants was equal to that in untreated control plants.

The test system of assay [4] is Ctenocephalides felis. Description: Ctenocephalides felis in-vitro contact test, adult cat flea. Conditions: 5 μg/cm^2 (=500 g/ha), after 48 hours, read-out: activity (efficacy, fleas dead or moribund). In outline:
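Acetone solutions coated onto inner walls of glass tubes; 900 ppm gives 5 μg/cm^2. After drying, 5-10 adult Ctenocephalides felis per tube held 48 h at room temperature. Fleas then placed on 45-50° C. plate for up to 5 min; those unable to climb away scored dead or moribund, efficacy as % dead/moribund.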

Assay [5] has as its system Anopheles funestus strain FUMOZ-R. Description: Anopheles funestus test (ANPHFU surface treatment & contact assay). The conditions noted are these: 30 minutes exposure, 24 hours after contact, read-out: efficacy (mortality); for mortality at 4 mg/m2: surface concentration 4 mg/m^2, glazed tile; for mortality at 20 mg/m2: surface concentration 20 mg/m^2, glazed tile. Here is the method:
Anopheles funestus Test (ANPHFU Surface Treatment & Contact Assay)
(§2) Solvent: Aceton+2000 ppm rapeseed oil methyl ester (RME)
In order to produce a sufficient, active ingredient containing solution it is necessary to solve the test compound in the solvent-mix (acetone at 2 mg/mL/RME 2000 ppm). This solution is pipetted onto a glazed tile and after evaporation of the acetone, adult mosquitoes of the species Anopheles funestus strain FUMOZ-R (Hunt et al., Med. Vet. Entomol. 2005 September; 19(3): 271-275) are placed onto the dried surface. The exposure time is 30 minutes.
(§3) Mortality in percent (%) is determined 24 hours after contact of the insects to the treated surface. 100% mortality means that all tested insects are dead, whereas 0% means that no insect died.

Assay [6] relates to Aedes aegypti strain MONHEIM. Put plainly: Aedes aegypti test (AEDSAE surface treatment & contact assay). The conditions noted are these: 30 minutes exposure, 24 hours after contact, read-out: efficacy (mortality); for mortality at 4 mg/m2: surface concentration 4 mg/m^2, glazed tile; for mortality at 20 mg/m2: surface concentration 20 mg/m^2, glazed tile. Here is the method: Aedes aegypti Test (AEDSAE Surface Treatment & Contact Assay)
as §2
In order to produce a sufficient, active ingredient containing solution it is necessary to solve the test compound in the solvent-mix (acetone at 2 mg/mL/RME 2000 ppm). This solution is pipetted onto a glazed tile and after evaporation of the acetone, adult mosquitoes of the species Aedes aegypti strain MONHEIM are placed onto the dried surface. The exposure time is 30 minutes.
as §3

The next assay concerns Rhipicephalus sanguineus. Description: Rhipicephalus sanguineus in-vitro contact test, adult brown dog ticks (RHIPSA Contact). The conditions noted are these: 5 μg/cm^2 (=500 g/ha), after 48 hours, read-out: activity (efficacy, ticks dead or moribund). As for the experimental part:
Rhipicephalus sanguineus—in-Vitro Contact Tests with Adult Brown Dog Ticks (RHIPSA Contact)
9 mg compound is solved in 1 ml acetone and diluted with acetone to the desired concentration. 250 μl_, of the test solution is filled in 25 ml glass test tubes and homogeneously distributed on the inner walls by rotation and tilting on a shaking device (2 h at 30 rpm). With a compound concentration of 900 ppm, an inner surface of 44.7 cm^2 and a homogeneous distribution, a dose of 5 μg/cm^2 is achieved.
After the solvent has evaporated, each test tube is filled with 5-10 adult brown dog ticks (Rhipicephalus sanguineus), closed with a perforated lid and incubated in a lying position at room temperature and relative humidity. After 48 hours efficacy is determined. The ticks are patted on the ground of the tubes and are incubated on a heating plate at 45-50° C. for at most 5 minutes Immotile or uncoordinated moving ticks, which are not able to escape the heat by climbing upwards, are marked as dead or moribund.
An efficacy of 100% means all ticks are dead or moribund; 0% means no ticks are dead or moribund.

The subject of assay [7] is Myzus persicae. Put plainly: Myzus persicae oral test. Conditions: 120 h, after 5 days. Here is the method: Solvent: 100 parts by weight acetone
Afterwards the plates are sealed with parafilm through which a mixed population of the green peach aphid (Myzus persicae) can suck on the compound preparation.
as §1

For assay [8], the system named is Musca domestica strain WHO-N. Put plainly: Musca domestica test (MUSCDO surface treatment & contact assay). Conditions: 30 minutes exposure, 24 hours after contact, read-out: efficacy (mortality); for mortality at 4 mg/m2: surface concentration 4 mg/m^2, glazed tile. Here is the method:
Musca domestica Test (MUSCDO Surface Treatment & Contact Assay)
as §2
In order to produce a sufficient, active ingredient containing solution it is necessary to solve the test compound in the solvent-mix (acetone at 2 mg/mL/RME 2000 ppm). This solution is pipetted onto a glazed tile and after evaporation of the acetone, adult flies of the species Musca domestica strain WHO—N are placed onto the dried surface. The exposure time is 30 minutes.
as §3

The next assay concerns Spodoptera frugiperda. Description: Spodoptera frugiperda spray test. The conditions noted are these: in Zea mays, 168 h, read-out: activity (mortality). In outline:
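Larvae of fall armyworm placed on dried maize leaf sections previously sprayed with emulsified compound (acetone/DMF solvent, water with 1000 ppm emulsifier). Percent of caterpillars killed recorded on day 7, 0–100% scale.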

A further assay has as its system Boophilus microplus. Put plainly: Boophilus microplus injection test (BOOPMI Injection). Conditions: Rhipicephalus microplus, 168 h; 20 μg/animal, injection into adult engorged female ticks, egg deposition after 7 days; read-out: activity (efficacy, infertile eggs). The gist of the method: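 Adult engorged female ticks (5 per group) injected into the abdomen with 1 μL compound in DMSO, then held in a climate chamber. Fertile egg deposition scored after 7 days, with unclear eggs kept until hatching (~42 days). Efficacy 100% = all eggs infertile, 0% = all fertile.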

Usually mortality stands for the share of the test organisms that died. As to `C[C@H](Nc1nc2cc(Cl)cc(Cl)c2o1)c1ncnn1-c1ncccn1` [Example I-013], the pest or weed control at 160 µg/disc, 500 g/ha with Diabrotica balteata (500 g/ha (=160 μg/well)) came out at 100%. The same compound came in with a mortality at 100 ppm in the assay on Ctenocephalides felis [1] of 90%. Further, the mortality at 500 g/ha in the assay on Myzus persicae [2] (500 g/ha) stood at 100%. For the same compound, the pest or weed control at 5 µg/cm2 in assay [3] came to 100%.

For `C[C@H](Nc1nc2cc(C(F)(F)F)cc(Cl)c2o1)c1ncnn1-c1ccc(Cl)nn1` [Example I-046, 7-Chlor-N-{(1S)-1-[1-(6-chlorpyridazin-3-yl)-1H-1,2,4-triazol-5-yl]ethyl}-5-(trifluormethyl)-1,3-benzoxazol-2-amin], the “activity (nematicidal activity, gall formation)” value with Meloidogyne incognita was found to be 90%. Further, the pest or weed control at 5 µg/cm2 in assay [3] is 80%.

Take `C[C@H](Nc1nc2cc(C(F)(F)F)c(Cl)cc2o1)c1ncnn1-c1ncc(Cl)cn1` [Example I-059, 6-Chlor-N-{(1)S-1-[1-(5-chlorpyrimidin-2-yl)-1H-1,2,4-triazol-5-yl]ethyl}-5-(trifluormethyl)-1,3-benzoxazol-2-amin]: in the assay with Diabrotica balteata, the pest or weed control at 100 g/ha was 100%. Further, the pest or weed control at 5 µg/cm2, 5 µg/cm2 in the assay with Ctenocephalides felis [4] and with Rhipicephalus sanguineus was 100% throughout. The figures for the mortality at 4 mg/m2 in [5], in assay [6] and in assay [8] were 85 to 100%, 85 to 100% and 90 to 100%, respectively. Also, the mortality at 20 mg/m2 in [5] and in assay [6] was 90 to 100% throughout. Further, the pest or weed control at 5 µg/cm2 in [3] was 100%. This compound had a mortality at 4 ppm with Myzus persicae [7] of 90%. In the assay with Spodoptera frugiperda, the mortality at 100 g/ha turned out to be 100%.

In the case of `C[C@H](Nc1nc2cc(C(F)(F)F)c(Cl)cc2o1)c1ncnn1-c1ncc(F)cn1` [Example I-061, 6-Chlor-N-{(1S)-1-[1-(5-fluorpyrimidin-2-yl)-1H-1,2,4-triazol-5-yl]ethyl}-5-(trifluormethyl)-1,3-benzoxazol-2-amin], the pest or weed control at 100 g/ha with Diabrotica balteata is 100%. In addition, the results for the pest or weed control at 5 µg/cm2, 5 µg/cm2 in the assay with Ctenocephalides felis [4] and in the assay on Rhipicephalus sanguineus were 100% and 80%, respectively. The values for the mortality at 4 mg/m2 in assay [5], in assay [6] and in assay [8] were 85 to 100%, 85 to 100% and 90 to 100%, respectively. The mortality at 20 mg/m2 in assay [6] is 90 to 100%. Moreover, the pest or weed control at 5 µg/cm2 in assay [3] worked out at 100%. For the same compound, the mortality at 4 ppm in the assay on Myzus persicae [7] was 100%. Besides, the mortality at 100 g/ha with Spodoptera frugiperda came to 100%.

Regarding `C[C@H](Nc1nc2cc(OC(F)(F)F)c(Cl)cc2o1)c1ncnn1-c1ncc(F)cn1` [Example I-081, 6-Chlor-N-{(1S)-1-[1-(5-fluorpyrimidin-2-yl)-1H-1,2,4-triazol-5-yl]ethyl}-5-(trifluormethoxy)-1,3-benzoxazol-2-amin], the pest or weed control at 100 g/ha with Diabrotica balteata was 100%. Also, the pest or weed control at 5 µg/cm2, 5 µg/cm2 in the assay with Ctenocephalides felis [4] and in the assay with Rhipicephalus sanguineus was 100% each time. Further, the mortality at 4 mg/m2 in [5] was in the range of 85 to 100%; in assay [6] it was 85 to 100%; in [8] it was 90 to 100%. The mortality at 20 mg/m2 in assay [5] was in the range of 90 to 100%; in [6], 90 to 100%; in assay [8] (surface concentration 20 mg/m^2, glazed tile) it was 90 to 100%. The mortality at 100 g/ha is 90% in the assay with Myzus persicae [2] and 100% in the assay with Spodoptera frugiperda. The pest or weed control at 5 µg/cm2 in assay [3] was 90%. The mortality at 4 ppm in the assay with Myzus persicae [7] was 90%.

In the case of `C[C@H](Nc1nc2cc(Cl)cc(C(F)(F)F)c2o1)c1ncnn1-c1ccc(C(F)(F)F)cn1` [Example I-087, 5-Chlor-7-(trifluormethyl)-N-[(1S)-1-{1-[5-(trifluormethyl)pyridin-2-yl]-1H-1,2,4-triazol-5-yl}ethyl]-1,3-benzoxazol-2-amin], in the assay with Meloidogyne incognita, the “activity (nematicidal activity, gall formation)” value was 90%. Also, the pest or weed control at 5 µg/cm2 in assay [3] came to 100%.

With `C[C@H](Nc1nc2c(Cl)cc(C(F)(F)F)cn2n1)c1ncnn1-c1ncccn1` [Example I-092, 8-chloro-N-{(1S)-1-[1-(pyrimidin-2-yl)-1H-1,2,4-triazol-5-yl]ethyl}-6-(trifluoromethyl)[1,2,4]triazolo[1,5-a]pyridin-2-amine], the pest or weed control at 0.02 mg in the assay on Boophilus microplus amounted to 100%. The pest or weed control at 5 µg/cm2, 5 µg/cm2 in the assay with Ctenocephalides felis [4] turned out to be 90%. In addition, the mortality at 100 ppm in the assay with Ctenocephalides felis [1] came out at 100%. This compound also had a mortality at 100 g/ha in the assay with Myzus persicae [2] of 90%. For the same compound, the pest or weed control at 5 µg/cm2 in [3] was 100%.

Consider `C[C@H](Nc1nc2c(Cl)cc(C(F)(F)F)cn2n1)c1ncnn1-c1ncc(Br)cn1` [Example I-093, N-{(1S)-1-[1-(5-bromopyrimidin-2-yl)-1H-1,2,4-triazol-5-yl]ethyl}-8-chloro-6-(trifluoromethyl)[1,2,4]triazolo[1,5-a]pyridin-2-amine], for which, in the assay with Ctenocephalides felis [4], the pest or weed control at 5 µg/cm2, 5 µg/cm2 is 100%. The compound also gave a mortality at 100 ppm with Ctenocephalides felis [1] of 100%. In the assay on Myzus persicae [2], this compound displayed a mortality at 100 g/ha of 90%. The pest or weed control at 5 µg/cm2 in assay [3] turned out to be 100%.
